Here are results for one molecule from article PMC11930087, “Mobility of four structural regions drives isoform-specific properties of photoenzyme LPOR in plants” (The Journal of Biological Chemistry, 2025).

Each structure is given as a SMILES string.

Assay in all cases: biochemical
In assay [1] the target is T1, AtPORC (Arabidopsis thaliana, UniProt O48741).
T1 construct: gene PORC
T1 sequence (O48741 68-401): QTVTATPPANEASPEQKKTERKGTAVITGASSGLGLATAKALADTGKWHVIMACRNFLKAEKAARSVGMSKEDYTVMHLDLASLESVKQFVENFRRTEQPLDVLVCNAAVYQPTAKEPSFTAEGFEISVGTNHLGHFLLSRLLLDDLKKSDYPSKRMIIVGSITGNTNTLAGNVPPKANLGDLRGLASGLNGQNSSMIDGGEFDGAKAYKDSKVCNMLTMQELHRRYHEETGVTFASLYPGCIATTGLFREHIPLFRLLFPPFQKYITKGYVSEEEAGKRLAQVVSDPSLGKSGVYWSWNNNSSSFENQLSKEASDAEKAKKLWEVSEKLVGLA
To be noted: 400 uM OPT lipids, 5 uM Pchlide, 15 uM LPOR. The method, then: (§1) (Figs. 3A, S2). […] The resulting plots resembled saturation curves, to which a hyperbolic function similar to the Michaelis–Menten equation could be fitted (Figs. 3B, S3, Materials and Methods). […] However, KM^L values were consistently lower than KM^D values. […] The addition of 400 μM OPT lipids lowered the KM^D constant for all isoforms, except for SlPOR1, SlPOR3, HaPOR1, HaPOR2, and PeaPOR, where the constant remained unchanged within error estimates. […] Shaded areas represent the SD between replicates. […] A fit of a modified Michaelis–Menten equation is shown, along with the graphical representation of KM^D (B) or KM^L (C). Spectra corresponding to the given F648/F635 values (B) or F Chlide/F Pchlide values (C) are shown on the right side of the plot. D, relationship between KM^D and KM^L for investigated isoforms. The overall distribution of data points is shown in gray. Error bars represent the uncertainty associated with the fitted constant KM^x. Closed symbols represent constants determined for samples not supplemented with lipids, while open symbols these determined in the presence of 400 μM OPT lipids. LPOR, light-dependent protochlorophyllide oxidoreductase; Pchlide, protochlorophyllide; Chlide, chlorophyllide.

The target in assay [2] is T2, PeaPOR (Lathyrus oleraceus, UniProt Q01289).
T2 construct: gene 3PCR; transit peptide removed; pET15b
T2 sequence (Q01289 65-399): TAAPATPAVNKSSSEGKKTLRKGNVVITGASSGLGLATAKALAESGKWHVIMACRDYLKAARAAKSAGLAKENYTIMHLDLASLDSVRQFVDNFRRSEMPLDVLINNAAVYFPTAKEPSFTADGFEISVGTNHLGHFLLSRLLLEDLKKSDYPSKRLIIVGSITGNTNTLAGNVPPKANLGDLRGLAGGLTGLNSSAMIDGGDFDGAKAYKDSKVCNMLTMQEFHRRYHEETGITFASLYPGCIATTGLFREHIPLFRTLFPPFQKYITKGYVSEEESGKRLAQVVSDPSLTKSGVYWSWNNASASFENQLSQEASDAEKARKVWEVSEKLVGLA
To be noted: 5 uM Pchlide, 15 uM LPOR. The method, then:
as §1

In assay [3] the target is T3, TaPOR1 (Triticum aestivum, UniProt Q41578).
T3 construct: gene PORA
T3 sequence (Q41578 75-388): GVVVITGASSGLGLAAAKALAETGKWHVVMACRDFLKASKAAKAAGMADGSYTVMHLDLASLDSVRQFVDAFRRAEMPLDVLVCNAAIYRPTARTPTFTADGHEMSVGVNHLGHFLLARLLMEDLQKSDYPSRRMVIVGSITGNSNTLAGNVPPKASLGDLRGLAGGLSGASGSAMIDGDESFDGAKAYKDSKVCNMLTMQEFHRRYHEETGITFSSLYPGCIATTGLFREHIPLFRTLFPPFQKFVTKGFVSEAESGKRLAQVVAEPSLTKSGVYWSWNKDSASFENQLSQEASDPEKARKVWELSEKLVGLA
To be noted: 5 uM Pchlide, 15 uM LPOR. On the procedure:
as §1

Assay [4] has as its target T4, HaPOR1 (Helianthus annuus, UniProt A0A251T841).
T4 construct: gene PORA; transit peptide removed; pET15b
T4 sequence (A0A251T841 64-398): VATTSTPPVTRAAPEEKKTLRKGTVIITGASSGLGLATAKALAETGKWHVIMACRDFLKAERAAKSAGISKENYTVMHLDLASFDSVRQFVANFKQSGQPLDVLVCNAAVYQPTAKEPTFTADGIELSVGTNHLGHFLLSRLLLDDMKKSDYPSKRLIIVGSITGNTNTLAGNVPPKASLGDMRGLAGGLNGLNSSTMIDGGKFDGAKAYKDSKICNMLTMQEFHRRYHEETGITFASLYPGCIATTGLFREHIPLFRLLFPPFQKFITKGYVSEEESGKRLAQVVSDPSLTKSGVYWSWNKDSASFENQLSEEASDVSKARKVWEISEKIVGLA
To be noted: 400 uM OPT lipids, 5 uM Pchlide, 15 uM LPOR. On the procedure:
as §1

Assay [5] deals with T5, HaPOR2 (Helianthus annuus, UniProt A0A251TWA4).
T5 construct: gene PORA; transit peptide removed; pET15b
T5 sequence (A0A251TWA4 53-387): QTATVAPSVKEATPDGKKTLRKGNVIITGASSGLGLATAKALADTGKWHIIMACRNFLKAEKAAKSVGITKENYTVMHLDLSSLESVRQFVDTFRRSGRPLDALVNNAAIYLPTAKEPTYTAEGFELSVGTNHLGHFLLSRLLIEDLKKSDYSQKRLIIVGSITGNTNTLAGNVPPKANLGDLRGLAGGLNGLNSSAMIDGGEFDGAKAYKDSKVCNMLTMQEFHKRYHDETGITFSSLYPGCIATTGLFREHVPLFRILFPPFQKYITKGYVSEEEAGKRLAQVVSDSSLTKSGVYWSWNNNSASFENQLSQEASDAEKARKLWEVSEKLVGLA
To be noted: 5 uM Pchlide, 15 uM LPOR. The method, then: as §1

In assay [6] the target is T6, PinPOR (Pinus mugo, UniProt Q41202).
T6 construct: transit peptide removed; pET15b
T6 sequence (Q41202 67-400): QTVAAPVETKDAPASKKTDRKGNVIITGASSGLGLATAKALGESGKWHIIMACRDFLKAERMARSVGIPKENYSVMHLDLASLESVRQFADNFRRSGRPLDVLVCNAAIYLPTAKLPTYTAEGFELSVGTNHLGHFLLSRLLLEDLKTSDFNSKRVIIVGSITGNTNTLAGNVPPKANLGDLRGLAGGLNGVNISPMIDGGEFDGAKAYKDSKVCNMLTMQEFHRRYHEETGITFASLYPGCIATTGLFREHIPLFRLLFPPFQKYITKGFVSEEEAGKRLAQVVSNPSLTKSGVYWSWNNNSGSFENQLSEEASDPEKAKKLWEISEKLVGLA
To be noted: 5 uM Pchlide, 15 uM LPOR. The method, then:
as §1

On to `NC(=O)C1=CN([C@@H]2O[C@H](COP(=O)(O)OP(=O)(O)OC[C@H]3O[C@@H](n4cnc5c(N)ncnc54)[C@H](OP(=O)(O)O)[C@@H]3O)[C@@H](O)[C@H]2O)C=CC1` [NADPH], for which the Michaelis-like constant in the dark (KM^D) in assay [1] was 0.8 µM. In addition, the results for the apparent Michaelis constant in the dark (KM^D) in assay [2] (400 uM OPT lipids) and in assay [5] (no lipids) were 4.7 µM and 9.4 µM, respectively. This molecule returned a Michaelis constant in the dark (KM^D) in assay [2] (no lipids) of 10.8 µM. Further, in assay [3] (400 uM OPT lipids), the Km (apparent, dark, KM^D) was found to be 45.8 µM. Also, the apparent Michaelis constant (KM^D) in assay [3] (no lipids, dark) was found to be 394 µM. In assay [4], the apparent Michaelis constant KM^D (dark) was 16.9 µM. The molecule further showed a Dark Michaelis-like constant (KM^D) in assay [5] (400 uM OPT lipids) of 2.2 µM. Besides, in assay [6] (400 uM OPT lipids), the Michaelis constant, dark (KM^D) amounted to 1.3 µM. For the same molecule, in assay [6] (no lipids), the apparent Michaelis constant in dark (KM^D) is 4.3 µM.
